Ends that are not written are not given here. * marks the point of attachment. Palmitoyl = CCCCCCCCCCCCCCCC(=O)*

This experiment deals with normal human fibroblasts (NHFs). Put plainly: In vitro healing test: recolonization of the damaged zone by fibroblasts (IBIDI culture inserts). Format: cell-based. Particulars: 16 h treatment in DMEM alone, final concentrations: clover honey 100 μg/mL, Pal-VGVAPG solution 1%, change vs nontreated control (NT). The method, then: This experiment is based on a model of biocompatible cell culture inserts allowing quantitative and perfectly reproducible measurement of the phenomena of healing in vitro.
The cells used in this study are normal human fibroblasts (NHFs).
The cells are seeded in 175 cm^2 flasks at a density of 1 million per flask in DMEM (Dulbecco's Modified Eagle's Medium) culture medium supplemented with 10% of foetal calf serum and 1.3 mM L-glutamine. Having reached confluence, the cells are trypsinized and re-seeded for the healing test.
Before seeding of the cells, inserts sold in the form of kits under the name Culture-Insert (ref. 80209) by the company IBIDI (Germany) are placed at the bottom of six wells of a plate. […]
The cells are maintained in culture for 16 h (optimum measurement time determined previously), in an incubator at 37° C. and in an atmosphere containing 5% CO2. […]
Images are immediately taken on a Nikon TE2000 video microscope in blue fluorescence (cell nuclei) and red fluorescence (actin filaments), at a rate of 2 photos per well at the damaged zone.
Image analysis is used to visualize and quantify the colonization by fibroblasts of the artificially “damaged” zone after removal of the insert. […]
The number of cells that have recolonized the damaged zone, per unit area (cm^2), is calculated. […]

With “palmitoyl-Val-Gly-Val-Ala-Pro-Gly (Palmitoyl-VGVAPG) [Pal-VGVAPG, sold in the form of an aqueous-glycolic solution under the trade name Biopeptide EL by the company Sederma]”, the “recolonization of the damaged zone (number of cells having recolonized per cm^2) compared with the nontreated control” value is reported as “+150%”.
